Data published in US20230150980A1, “COLLAGEN 1 TRANSLATION INHIBITORS AND METHODS OF USE THEREOF” (Anima Biotech Inc., priority 2020, published 2023).
Counter-ions that a name gives are not always drawn.

System: collagen 1
Assay: WI-38 collagen 1 inhibition assay (anti-Collagen I immunofluorescence);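 further: minus sign means inactive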
Format: cell-based
Conditions: cellular EC50, WI-38 human lung fibroblasts, values are LogEC50 classes
Procedure: WI-38 cells (ATCC® CCL-75™) were maintained in MEM EAGLE (NEAA) W. GLUTAMIN (Biological Industries, Cat. 06-1040-15-1A) containing 10% fetal bovine serum (FBS) and 1% Penicillin-Streptomycin Solution. To synchronize the cells (cell cycle synchronization) prior to induction of collagen synthesis, the cells were starved using DMEM-low glucose supplemented with 0.25% FBS for two hours and then without FBS for 24 hours. To induce collagen synthesis, the cells were treated with a collagen induction cocktail for the indicated time. Compounds were added with induction.
Cells in 96-well or 384-well plates were fixed for 20 min in 4% paraformaldehyde (PFA, ENCO, Cat. sc-281692). Following two washes with 1×PBS, cells were treated with hydrogen peroxide (Acros, Cat: 7722-84-1) for 10 minutes and then washed twice with 1×PBS. Cells were then incubated over-night at 4° C. with Anti-Collagen I (Sigma-Aldrich, Cat: C 2456) antibody and washed three times with 1×PBS. Cell were then incubated with a suitable secondary fluorescently-tagged antibody and nuclei stained with DAPI, for 1 hour, and then washed 3 times with 1×PBS.
Cell images were taken with Operetta (Perkin Elmer, USA), a wide-field fluorescence microscope at 20× magnification. After acquisition, the images were transferred to Columbus software (Perkin-Elmer) for image analysis. In Columbus, cells were identified by their nucleus, using the “Find Nuceli” module and cytoplasm was detected based on the secondary antibody channel. Subsequently, the fluorescent signal was enumerated in the identified cell region. Data was exported to a data analysis and visualization software, Tibco Spotfire, USA.

| SMILES | COL1 Efficacy (LogEC50) |
| --- | --- |
| FC(F)(F)c1cncnc1N1CCN(Cc2nc3ccccc3o2)CC1 [compound 315, 2-((4-(5-(trifluoromethyl)pyrimidin-4-yl)piperazin-1-yl)methyl)benzo[d]oxazole] | + (+: >−5) |
| c1cc(CN2CCN(c3ccncc3)CC2)c2[nH]ccc2c1 [compound 262, 7-[[4-(4-pyridyl)piperazin-1-yl]methyl]-1H-indole] | − |
| CC(=O)Nc1ccc2[nH]c(CN3CCN(c4ccncc4)CC3)cc2c1 [compound 258, N-[2-[[4-(4-pyridyl)piperazin-1-yl]methyl]-1H-indol-5-yl]acetamide] | ++ (++: −5 to −6) |
| Cn1cc(N2CCN(Cc3nc4ccc(F)cc4o3)CC2)nn1 [compound 323] | − |
| Cc1ncnc(N2CCN(Cc3cc4cc(Cl)ccc4[nH]3)CC2)c1C [Compound 210, 5-chloro-2-((4-(5,6-dimethylpyrimidin-4-yl)piperazin-1-yl)methyl)-1H-indole] | +++ (+++: <−6) |
| CN1CCC(N2CCN(Cc3cc4ccccc4[nH]3)CC2)CC1 [Compound 227, 2-[[4-(1-methyl-4-piperidyl)piperazin-1-yl]methyl]-1H-indole] | − |
| CCc1cncnc1N1CCN(Cc2nc3ccc(C(F)(F)F)cc3[nH]2)CC1 [compound 214] | +++ (+++: <−6) |
| Cn1ccc(N2CCN(Cc3nc4ccccc4o3)CC2)n1 [compound 324, 2-((4-(1-methyl-1H-pyrazol-3-yl)piperazin-1-yl)methyl)benzo[d]oxazole] | + (+: >−5) |
| c1cncc(-c2ccc3[nH]c(CN4CCN(c5ccncc5)CC4)cc3c2)c1 [compound 220, 5-(3-pyridyl)-2-[[4-(4-pyridyl)piperazin-1-yl]methyl]-1H-indole] | − |
| C[C@@H]1CN(Cc2cc3ccccc3[nH]2)C[C@H](C)N1c1ccncc1 [compound 276, 2-[[(3S,5R)-3,5-dimethyl-4-(4-pyridyl)piperazin-1-yl]methyl]-1H-indole] | − |
| c1ccc2oc(CN3CCN(c4ccncc4)CC3)nc2c1 [compound 282, 2-[[4-(4-pyridyl)piperazin-1-yl]methyl]-1,3-benzoxazole formate] | + (+: >−5) |
| c1cnc2[nH]c(CN3CCN(c4ccncc4)CC3)cc2c1 [compound 275, 2-[[4-(4-pyridyl)piperazin-1-yl]methyl]-1H-pyrrolo[2,3-b]pyridine] | − |
| c1ccc2[nH]c(CN3CCN(c4ccncc4)CC3)nc2c1 [compound 253, 2-[[4-(4-pyridyl)piperazin-1-yl]methyl]-1H-benzimidazole] | ++ (++: −5 to −6) |
| O=C(C1CCCCC1)N1CCN(Cc2cc3ccccc3[nH]2)CC1 [Compound 232, Cyclohexyl-[4-(1H-indol-2-ylmethyl)piperazin-1-yl]methanone] | ++ (++: −5 to −6) |
| Cc1ccc2[nH]c(CN3CCN(c4ccncc4)CC3)cc2c1 [compound 252, 5-methyl-2-[[4-(4-pyridyl)piperazin-1-yl]methyl]-1H-indole] | ++ (++: −5 to −6) |
| Cc1ncnc(N2CCN(Cc3nc4ccc(C(F)(F)F)cc4[nH]3)CC2)c1C [Compound 201, 2-((4-(5,6-dimethylpyrimidin-4-yl)piperazin-1-yl)methyl)-6-(trifluoromethyl)-1H-benzo[d]imidazole] | +++ (+++: <−6) |
| Cc1ncnc(N2CCN(Cc3nc4c(F)cccc4o3)CC2)c1C [compound 293, 2-((4-(5,6-dimethylpyrimidin-4-yl)piperazin-1-yl)methyl)-4-fluorobenzo[d]oxazole] | ++ (++: −5 to −6) |
| Cn1cc(N2CCN(Cc3nc4ccccc4o3)CC2)nn1 [compound 322] | + (+: >−5) |
